{"source": "patent US20140303182A1", "about": "“PHARMACEUTICALLY ACCEPTABLE SALTS OF QUINOLINONE COMPOUNDS HAVING IMPROVED PHARMACEUTICAL PROPERTIES” (NOVARTIS AG, priority 2003, published 2014)", "key": {"[1]": {"assay": "Aqueous equilibrium solubility and pH at saturation", "type": "physicochemical", "conditions": "for Solubility: water, 24 hours at 22° C., HPLC, free base equivalent"}, "[2]": {"assay": "Crystallinity by XRPD", "type": "physicochemical", "protocol": "XRPD analyses were carried out on a Shimadzu XRD-6000 X-ray powder diffractometer using Cu Kα radiation. The instrument is equipped with a fine focus X-ray tube. The tube voltage and amperage were set to 40 kV and 40 mA, respectively. The divergence and scattering slits were set at 1° and the receiving slit was set at 0.15 mm. Diffracted radiation was detected by a NaI scintillation detector. A theta-two theta continuous scan at 3°/minute (0.4 seconds/0.02° step) from […] was used."}, "[3]": {"assay": "Hygroscopicity, moisture sorption/desorption", "type": "physicochemical"}, "[4]": {"assay": "Chemical stability, solution state (HPLC)", "type": "physicochemical"}, "[5]": {"assay": "Compaction studies", "type": "physicochemical", "conditions": "200 mg at 5000 psi; for Tensile strength of compact: SC = Strong Cobb"}, "[6]": {"assay": "Crystal morphology, polarized light microscope", "type": "physicochemical", "conditions": "10× and 40× magnification"}, "[7]": {"assay": "Chemical stability, solid state (HPLC)", "conditions": "solid state"}}, "note": "Where “and” joins values, the source holds several entries; their conditions need not be identical. Equal values may be shown once. Read-outs that look alike come from different tables or passages of the source."}
{"smiles": "CN1CCN(c2ccc3nc(-c4c(N)c5c(F)cccc5[nH]c4=O)[nH]c3c2)CC1", "note": "(racemic) [Mono-lactate, 4-Amino-5-fluoro-3-[6-(4-methylpiperazin-1-yl)-1H-benzimidazol-2-yl]-1H-quinolin-2-one]", "values": [{"measurement": "solubility in water", "setting": "[1]; water / distilled water, listed as lactate salt", "value": "about 330 mg/mL"}, {"measurement": "Solubility", "setting": "[1]", "value": "182 mg FB/mL and 202 mg FB/mL and 196 mg FB/mL and 330 mg FB/mL and 216 mg FB/mL"}, {"measurement": "Solubility", "setting": "[1]; listed as Lactate", "value": 34.2, "unit": "mg FB/mL"}, {"measurement": "Crystallinity", "setting": "[2]", "value": "crystalline"}, {"measurement": "Crystallinity", "setting": "[2]; listed as DL-lactate", "value": "crystalline"}, {"measurement": "Crystallinity", "setting": "[2]; listed as Lactate", "value": "mixture of crystalline"}, {"measurement": "Crystallinity", "setting": "[2]; listed as mono-DL-lactate", "value": "mixture of crystalline and amorphous material"}, {"measurement": "hygroscopicity (verdict)", "setting": "[3]", "value": "non-hygroscopic"}, {"measurement": "Area % at Time = 0", "setting": "[4]; 5° C.", "value": 98.80, "unit": "Area %"}, {"measurement": "Area % at Time = 7 days", "setting": "[4]; 5° C.", "value": 98.60, "unit": "Area %"}, {"measurement": "Area % at Time = 0", "setting": "[4]; ambient temperature", "value": 98.80, "unit": "Area %"}, {"measurement": "Area % at Time = 7 days", "setting": "[4]; ambient temperature", "value": 98.71, "unit": "Area %"}, {"measurement": "Forms Compact", "setting": "[5]", "value": "form compacts"}, {"measurement": "Tensile strength of compact", "setting": "[5]; listed as Lactate-trial 1", "value": 13.8, "unit": "SC"}, {"measurement": "Tensile strength of compact", "setting": "[5]; listed as Lactate-trial 2", "value": 17.9, "unit": "SC"}, {"measurement": "Tensile strength of compact", "setting": "[5]; listed as Lactate-trial 3", "value": 16.1, "unit": "SC"}, {"measurement": "Forms Compact", "setting": "[5]; listed as Lactate-trial 1", "value": "Yes"}, {"measurement": "Thickness of compact", "setting": "[5]; listed as Lactate-trial 1", "value": 3.06, "unit": "mm"}, {"measurement": "Forms Compact", "setting": "[5]; listed as Lactate-trial 2", "value": "Yes"}, {"measurement": "Thickness of compact", "setting": "[5]; listed as Lactate-trial 2", "value": 2.92, "unit": "mm"}, {"measurement": "Forms Compact", "setting": "[5]; listed as Lactate-trial 3", "value": "Yes"}, {"measurement": "Thickness of compact", "setting": "[5]; listed as Lactate-trial 3", "value": 2.97, "unit": "mm"}, {"measurement": "Morphology", "setting": "[6]; listed as Lactate-trial 1", "value": "Plate"}, {"measurement": "Morphology", "setting": "[6]; listed as Lactate-trial 2", "value": "Plate"}, {"measurement": "Morphology", "setting": "[6]; listed as Lactate-trial 3", "value": "Plate"}, {"measurement": "Morphology", "setting": "[6]; listed as lactate salts", "value": "plate"}, {"measurement": "Area % at Time = 0", "setting": "[7]; 30° C./60% Relative humidity", "value": 98.41, "unit": "Area %"}, {"measurement": "Area % at Time = 6 weeks", "setting": "[7]; 30° C./60% Relative humidity", "value": 99.04, "unit": "Area %"}, {"measurement": "Area % at Time = 0", "setting": "[7]; 40° C./70% Relative humidity", "value": 98.46, "unit": "Area %"}, {"measurement": "Area % at Time = 6 weeks", "setting": "[7]; 40° C./70% Relative humidity", "value": 98.55, "unit": "Area %"}]}
{"smiles": "CN1CCN(c2ccc3nc(-c4c(N)c5c(F)cccc5[nH]c4=O)[nH]c3c2)CC1", "note": "[Mono-malate, 4-Amino-5-fluoro-3-[6-(4-methylpiperazin-1-yl)-1H-benzimidazol-2-yl]-1H-quinolin-2-one]", "values": [{"measurement": "Solubility", "setting": "[1]; listed as L-Malate", "value": 69, "unit": "mg FB/mL"}, {"measurement": "Crystallinity", "setting": "[2]", "value": "crystalline"}, {"measurement": "Crystallinity", "setting": "[2]; listed as L-Malate", "value": "mixture of crystalline"}, {"measurement": "Crystallinity", "setting": "[2]; listed as L-malate", "value": "mixture of crystalline and amorphous material"}, {"measurement": "hygroscopicity (verdict)", "setting": "[3]", "value": "non-hygroscopic"}, {"measurement": "Area % at Time = 0", "setting": "[4]; 5° C.", "value": 98.70, "unit": "Area %"}, {"measurement": "Area % at Time = 7 days", "setting": "[4]; 5° C.", "value": 98.69, "unit": "Area %"}, {"measurement": "Area % at Time = 0", "setting": "[4]; ambient temperature", "value": 98.70, "unit": "Area %"}, {"measurement": "Area % at Time = 7 days", "setting": "[4]; ambient temperature", "value": 98.65, "unit": "Area %"}, {"measurement": "Forms Compact", "setting": "[5]", "value": "form compacts"}, {"measurement": "Morphology", "setting": "[6]", "value": "needle"}]}
{"smiles": "CN1CCN(c2ccc3nc(-c4c(N)c5c(F)cccc5[nH]c4=O)[nH]c3c2)CC1", "note": "[Mono-mesylate, 4-Amino-5-fluoro-3-[6-(4-methylpiperazin-1-yl)-1H-benzimidazol-2-yl]-1H-quinolin-2-one]", "values": [{"measurement": "Solubility", "setting": "[1]", "value": "185 mg FB/mL and 180 mg FB/mL"}, {"measurement": "Solubility", "setting": "[1]; listed as Mesylate", "value": 22.3, "unit": "mg FB/mL"}, {"measurement": "Crystallinity", "setting": "[2]", "value": "crystalline"}, {"measurement": "Crystallinity", "setting": "[2]; listed as Mesylate", "value": "mixture of crystalline"}, {"measurement": "Crystallinity", "setting": "[2]; listed as mesylate", "value": "crystalline"}, {"measurement": "Crystallinity", "setting": "[2]; listed as mono-mesylate", "value": "mixture of crystalline and amorphous material"}, {"measurement": "Area % at Time = 0", "setting": "[4]; 5° C.", "value": 98.70, "unit": "Area %"}, {"measurement": "Area % at Time = 7 days", "setting": "[4]; 5° C.", "value": 98.76, "unit": "Area %"}, {"measurement": "Area % at Time = 0", "setting": "[4]; ambient temperature", "value": 98.70, "unit": "Area %"}, {"measurement": "Area % at Time = 7 days", "setting": "[4]; ambient temperature", "value": 98.77, "unit": "Area %"}, {"measurement": "Forms Compact", "setting": "[5]", "value": "form compacts"}, {"measurement": "Tensile strength of compact", "setting": "[5]; listed as Mesylate-trial 1", "value": 6.9, "unit": "SC"}, {"measurement": "Tensile strength of compact", "setting": "[5]; listed as Mesylate-trial 2", "value": 17.9, "unit": "SC"}, {"measurement": "Forms Compact", "setting": "[5]; listed as Mesylate-trial 1", "value": "Yes"}, {"measurement": "Thickness of compact", "setting": "[5]; listed as Mesylate-trial 1", "value": 2.77, "unit": "mm"}, {"measurement": "Forms Compact", "setting": "[5]; listed as Mesylate-trial 2", "value": "Yes"}, {"measurement": "Thickness of compact", "setting": "[5]; listed as Mesylate-trial 2", "value": 2.87, "unit": "mm"}, {"measurement": "Morphology", "setting": "[6]", "value": "varies from plate to needle"}, {"measurement": "Morphology", "setting": "[6]; listed as Mesylate-trial 1", "value": "Plate"}, {"measurement": "Morphology", "setting": "[6]; listed as Mesylate-trial 2", "value": "Needle"}, {"measurement": "Area % at Time = 0", "setting": "[7]; 30° C./60% Relative humidity", "value": 98.80, "unit": "Area %"}, {"measurement": "Area % at Time = 6 weeks", "setting": "[7]; 30° C./60% Relative humidity", "value": 98.68, "unit": "Area %"}, {"measurement": "Area % at Time = 0", "setting": "[7]; 40° C./70% Relative humidity", "value": 98.89, "unit": "Area %"}, {"measurement": "Area % at Time = 6 weeks", "setting": "[7]; 40° C./70% Relative humidity", "value": 98.7, "unit": "Area %"}]}
